Experimental data reported in PMC3855971, “Study of Possible Mechanisms Involved in the Inhibitory Effects of Coumarin Derivatives on Neutrophil Activity” (Oxidative Medicine and Cellular Longevity, 2013).

Key:
[1] = system: intracellular ROS production in PMA stimulated human neutrophils; test: Intracellular chemiluminescence (luminol with superoxide dismutase and catalase) of PMA stimulated neutrophils; type: cell-based; conditions: for Effect on intracellular ROS production: 0.01–100 μmol/L, PMA stimulated; for EC50: Homo sapiens, PMA 0.05 μmol/L, 37°C, luminol-enhanced CL integrated over 1800 s, mean ± SEM, read-out: EC50, intracellular chemiluminescence (50% inhibition of control CL)
Method: (§1) The effect of HHC or HHDC (0.01, 0.1, 1, 10, and 100 μmol/L) on extra- and intracellular ROS production was measured in unstimulated and PMA (0.05 μmol/L) stimulated neutrophils (5 × 10^5/sample) by isoluminol-/luminol-enhanced chemiluminescence (CL). Extracellular CL was determined in the system containing isoluminol (5 μmol/L) and HRP (8 U/mL). Intracellular CL was measured with luminol (5 μmol/L) in the presence of the extracellular scavengers superoxide dismutase (100 U/mL) and catalase (2 000 U/mL). […] Data were based on integral values of CL over 1800 s, (RLU × s; RLU: relative light units).

[2] = system: extracellular ROS production in PMA stimulated human neutrophils; test: Extracellular chemiluminescence (isoluminol/HRP) of PMA stimulated neutrophils; type: cell-based; conditions: for Effect on extracellular ROS production: 0.01–100 μmol/L, PMA stimulated; for EC50: Homo sapiens, PMA 0.05 μmol/L, 37°C, isoluminol-enhanced CL integrated over 1800 s, mean ± SEM, read-out: EC50, extracellular chemiluminescence (50% inhibition of control CL); for EC50 / IC50: Neutrophil; for IC50: PMA stimulated human neutrophils, read-out: IC50 of control extracellular chemiluminescence
Method: as §1

PKC = PKC activity assay (ELISA kit) in cytosol of PMA stimulated neutrophils; type: cell-based, human; conditions: for PKC activity (percentage of stimulated PMA control): 30 min incubation, PMA 0.15 μmol/L 3 min, mean ± SEM, n = 8
Method: PKC activity in the cytosol was detected by the modified method of Varga et al.. Isolated human neutrophils (5 × 10^5/mL) were incubated 30 min with HHC (1, 10, and 100 μmol/L) or HHDC (1, 10, and 100 μmol/L) at 37°C. Neutrophils were then stimulated with PMA (0.15 μmol/L, final concentration) at 37°C for 3 min. The reaction was stopped by addition of 10 vol of ice-cold PBS. After centrifugation (500 ×g, 4°C, 10 min) the cells were resuspended in sample buffer (20 mmol/L TRIS-HCl, 5 mmol/L EDTA, 1% Triton, 10% glycerol, and protease inhibitor cocktail), sonicated on ice, and centrifuged (14 000 ×g, 5 min, 4°C). The cytosolic fractions were transferred to a prechilled 1.5 mL microcentrifuge tube and stored at –70°C. Protein content of cytosol fraction was measured using Bradford Dye Reagent Detection Kit (Bio-Rad, USA). PKC activity was measured with a Nonradioactive Protein Kinase Assay kit (Assay Designs, Ann Arbor, MI, USA), which is based on a solid-phase enzyme-linked immunoabsorbent assay (ELISA), utilising a specific synthetic peptide as substrate for PKC and a polyclonal antibody recognizing the phosphorylated form of the substrate. The assay is developed with tetramethylbenzidine substrate and a colour develops in proportion to PKC phosphotransferase activity. The colour development was stopped with acid stop solution and the intensity of the colour was measured in a microplate reader at 450 nm. The data were expressed as relative kinase activity per 1 mg of protein.

[3] = Chemiluminescence assay in cell-free system; type: biochemical; conditions: luminol, hydrogen peroxide; for EC50: HRP, 37°C, CL over 10 minutes, mean ± SEM, read-out: EC50, cell free chemiluminescence (50% inhibition of control CL)
Method: In the cell-free system, luminol, horseradish peroxidase, and hydrogen peroxide were used for chemiluminescence generation. The 200 μL samples consisted of 50 μL aliquots: HRP (2 U/mL), luminol (10 μmol/L), HHC, or HHDC solutions in the concentrations of 1, 10, or 100 μmnol/L. The reaction was initiated by adding hydrogen peroxide at the final concentration of 100 μmol/L. The chemiluminescence responses were measured for 10 minutes at 37°C in a microplate luminometer Immunotech LM-01T (Czech Republic).

[4] = system: NADPH oxidase subunit p40^phox; test: Western blot, phosphorylation of NADPH oxidase subunit p40phox (T154) in PMA stimulated neutrophils; type: cell-based, human; conditions: 10 and 100 μmol/L, PMA 0.15 μmol/L
Method: (§2) Phosphorylation of PKC isoenzymes α, βII, and δ, as well as NADPH oxidase subunit p40^phox, was detected using the method described by Jančinová et al..
(§3) The suspension of isolated neutrophils (100 μL) containing 5 × 10^6 cells was preincubated at 37°C for 60 seconds with different concentrations of HHC or HHDC (10, 100 μmol/L) prior to addition of PMA (0.15 μmol/L). Incubation with PMA (5 min) was stopped by using a solubilisation buffer (20 mmol/L Tris-HCl, 5 mmol/L EDTA, 1% Triton, 10% glycerol, 10 mmol/L NaF, 1 mmol/L sodium orthovanadate, 208 μmol/L AEBF, 0.17 μmol/L aprotinin, 8 μmol/L bestatin, 2.8 μmol/L E-64, 4 μmol/L leupeptin, and pH 7.4). The suspension was sonicated at 4°C for […] and centrifuged at 14 000 ×g at 4°C for 5 min to remove unbroken cells. […] From the two strips taken, one was detected for PKCα, βII (area between 60 and 100 kD) and the second for detection of β-actin (30–60 kD), which represented the internal control. […]
(§4) NADPH oxidase subunit p40^phox and PKC isoenzyme δ were detected in the same blots after their washing and incubation with 10x diluted stripping buffer (Reblot Plus Mild Solution, Millipore, Temecula, CA, USA) for 15 min and washed overnight in diluent buffer (1% bovine serum albumin in Tris buffered saline). […] Autoradiogram bands were quantified using the Image J programme. […]

PKCδ = target: T1, PKCδ (Homo sapiens, UniProt Q05655); test: Western blot, phosphorylation of PKCδ (Thr505) in PMA stimulated neutrophils; type: cell-based; conditions: 10 and 100 μmol/L, PMA 0.15 μmol/L
T1 construct: endogenous in cells; host or cells: isolated human neutrophils
Method: as §2, §3, §4

human neutrophils = test: Cytotoxicity by ATP liberation (luciferin-luciferase chemiluminescence); type: cell-based; conditions: 1, 10, and 100 μmol/L
Method: The cytotoxic effect of HHC and HHDC was evaluated by means of ATP liberation by the luciferin-luciferase chemiluminescence. The neutrophil suspension (30 μL; 30 000 cells/sample) and 20 μL of Tyrode's solution were incubated with 50 μL of HHC or HHDC (1–100 μmol/L) for 15 min at 37°C. Ten microliters of a mixture of luciferin (1.6 μg/sample) and luciferase (45 000 U/sample) was added, and the chemiluminescence was recorded for 60 s. In each experiment, the chemiluminescence of ATP standards (1–500 nmol/L) was measured and the concentrations of ATP in samples were calculated from the calibration curve. The total ATP content was assessed immediately after sonication of neutrophils for 10 s.

[5] = set-up: method as in PMID 21187835; conditions: cited from earlier work

T1 sequence (Q05655 whole entry): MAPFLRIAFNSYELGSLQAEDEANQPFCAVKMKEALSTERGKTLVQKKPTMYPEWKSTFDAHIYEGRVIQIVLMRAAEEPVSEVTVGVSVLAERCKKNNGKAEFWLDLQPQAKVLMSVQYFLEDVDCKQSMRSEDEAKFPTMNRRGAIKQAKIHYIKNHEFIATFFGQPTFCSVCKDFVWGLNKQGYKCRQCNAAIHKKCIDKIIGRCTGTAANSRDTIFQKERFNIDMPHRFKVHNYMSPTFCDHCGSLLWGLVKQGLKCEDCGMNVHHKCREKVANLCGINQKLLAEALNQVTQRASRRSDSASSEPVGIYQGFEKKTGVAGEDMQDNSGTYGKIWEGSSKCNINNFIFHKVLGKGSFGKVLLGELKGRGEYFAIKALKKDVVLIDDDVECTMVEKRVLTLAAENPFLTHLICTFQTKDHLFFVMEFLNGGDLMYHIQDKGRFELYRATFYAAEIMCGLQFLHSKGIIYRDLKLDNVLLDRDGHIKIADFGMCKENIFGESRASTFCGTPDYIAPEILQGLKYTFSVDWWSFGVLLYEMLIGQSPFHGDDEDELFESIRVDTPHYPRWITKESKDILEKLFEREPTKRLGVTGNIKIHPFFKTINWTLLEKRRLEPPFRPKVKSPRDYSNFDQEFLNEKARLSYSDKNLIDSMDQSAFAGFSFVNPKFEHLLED

EC50 ([1]; Neutrophil) [nM] | IC50 ([1]; Neutrophil, PMA stimulated human neutrophils) [nM] | EC50 [2] [nM] | IC50 [2] [nM] | EC50 [3] [nM] | Effect on phosphorylation of PKCδ (PKCδ) | IC50 ([3]; horseradish peroxidase, unit inferred, read-out: IC50, chemiluminescence generated by cell-free system) [nM] | SMILES | Effect on intracellular ROS production [1] | Effect on extracellular ROS production [2] | PKC activity (percentage of stimulated PMA control) (PKC; 1 μmol/L) [%] | PKC activity (percentage of stimulated PMA control) (PKC; 10 μmol/L) [%] | PKC activity (percentage of stimulated PMA control) (PKC; 100 μmol/L) [%] | Effect on phosphorylation of p40phox subunit [4] | Effect on spontaneous ATP liberation (cytotoxicity) (human neutrophils) | Partition coefficient, compared to that of HHC [5] | Effect on PKC activity (PKC; 1, 10, and 100 μmol/L, PMA stimulated)
5240 ± 570 | 5240 ± 570 | 1040 ± 200 | 1040 ± 200 | 590 ± 10 | did not affect phosphorylation of PKCδ | – | O=c1oc2cc(O)ccc2cc1-c1ccc(O)cc1 [HHC, 7-Hydroxy-3-(4′-hydroxyphenyl) coumarin] | decreased significantly intracellular ROS production | decreased significantly extracellular ROS production | 87.7 ± 4.2 | 74.8 ± 6.3 | 46.3 ± 1.8 | failed to influence it | did not increase spontaneous ATP liberation | – | –
> 100000 | – | 1010 ± 130 | 1010 ± 130 | 2470 ± 40 | did not affect phosphorylation of PKCδ | 2470 ± 40 | O=C1Oc2cc(O)ccc2CC1c1ccc(O)cc1 (stereo not shown) [HHDC, 7-Hydroxy-3-(4′-hydroxyphenyl)-3,4-dihydrocoumarin] | slightly effective only in the highest concentration tested | decreased significantly extracellular ROS production | – | – | – | failed to influence it | did not increase spontaneous ATP liberation | lower values of the partition coefficient | did not significantly influence PKC activity
